This is an account of results in patent US9770451B2, “Composition including ATM inhibitor for reducing cellular senescence and use of the composition” (Samsung Electronics Co., Ltd., priority 2014, dated 2017).

Common to all, as to type: cell-based, human
Assay [1] has as its system progeria senescent fibroblasts (passage 17). The assay can be described thus: Lipofuscin autofluorescence (FACS). Particulars: CP-466722 0.1 μM, 4 weeks. The protocol: (§1) In addition, the amounts of lipofuscin in the cells cultured as described above were measured. The progeria senescent fibroblasts (passage 17) that became senescent in the presence of KU-60019 (0.5 μM) were cultured in a CO2 incubator at a temperature of 37° C. for 4 weeks. The medium was replaced by a fresh medium containing KU-60019 (0.5 μM), once every 4 days. Lipofuscin is characterized by having autofluorescence capability, and in this regard, the cultured cells were irradiated with a wavelength of 488 nm by using a FACSCaliber (Beckton Dickinson), and then, measured with radiation emitted from a wavelength of 520 nm. The results were analyzed using Cell Quest 3.2 software (Beckton Dickinson). FIG. 11 is a graph showing lipofuscin measured in the cells that were cultured in the presence of KU-60019.
In addition, the amounts of lipofuscin in the cells cultured as described above were measured. […] Lipofuscin is characterized by having autofluorescence capability, and in this regard, the cultured cells were irradiated with a wavelength of 488 nm by using a FACSCaliber (Beckton Dickinson), and then, measured with radiation emitted from a wavelength of 520 nm. The results were analyzed using Cell Quest 3.2 software (Beckton Dickinson).

The test system of assay [2] is senescent myoblasts (passage 11). Description: Lipofuscin autofluorescence (FACS). Particulars: CP-466722 0.1 μM, 4 weeks. The protocol: as §1, with “The” for “The progeria”, “myoblast” for “fibroblasts”, “11)” for “17)”, “17” for “11”
In addition, the amounts of lipofuscin in the cells cultured as described above were measured. […] Lipofuscin is characterized by having autofluorescence capability, and in this regard, the cultured cells were irradiated with a wavelength of 488 nm by using a FACSCaliber (Beckton Dickinson), and then, measured with radiation emitted from a wavelength of 520 nm. The results were analyzed using Cell Quest 3.2 software (Beckton Dickinson). FIG. 23 is a graph showing lipofuscin measured in the cells that were cultured in the presence of CP-466722.

Assay [3] relates to progeria senescent fibroblasts (passage 17). The assay can be described thus: ROS measurement (MitoSOX Red). Particulars: CP-466722 0.1 μM. The protocol:
ROS was measured according to the protocol of the manufacturer using a 0.2 μM MitoSOX™ Red reagent (Invitrogen, M36008). In detail, 2 μL of the reagent that was stored in a 1,000-fold concentration was added to a 2 ml medium sufficiently enough to cover the cultured cells that were attached to a coverslip. While being protected from light, the cells were further incubated at a temperature of 37° C. for 30 minutes. The cultured cells were irradiated with a wavelength of 520 nm by using a FACSCaliber (Beckton Dickinson), and then, measured with radiation emitted from a wavelength of 580 nm. The results were analyzed using Cell Quest 3.2 software (Beckton Dickinson). FIG. 12 is a graph showing results of measuring ROS (A) and mitochondrial membrane potential (B) of the progeria senescent fibroblasts (passage 17) that were cultured in the presence of an ATM-kinase inhibitor KU-60019 (0.5 μM).
ROS was measured according to the protocol of the manufacturer using a 0.2 μM MitoSOX™ Red reagent (Invitrogen, M36008). […] The cultured cells were irradiated with a wavelength of 520 nm by using a FACSCaliber (Beckton Dickinson), and then, measured with radiation emitted from a wavelength of 580 nm. The results were analyzed using Cell Quest 3.2 software (Beckton Dickinson).

Assay [4] has the same test system. The assay can be described thus: Mitochondrial membrane potential (JC-1). Particulars: CP-466722 0.1 μM. The protocol:
The mitochondrial activity potential (i.e., mitochondrial membrane potential) was measured according to the protocol of the manufacturer of the MitoProbe™ JC-1 assay kit for flow cytometry (Life technologies: T3168). […] Consequently, mitochondrial depolarization is indicated by a decrease in the red/green fluorescence intensity ratio. The cultured cells were analyzed by flow cytometry by using an FACSCaliber (Beckton Dickinson) using excitation at a wavelength of 488 nm, and band-pass emission light filters at a wavelength of 530/30 nm and 585/42 nm. The results were analyzed using Cell Quest 3.2 software (Beckton Dickinson). FIG. 12 is a graph showing results of measuring mitochondrial activity potential (B) of the cultured cells. […]
The mitochondrial activity potential (i.e., mitochondrial membrane potential) was measured according to the protocol of the manufacturer using the MitoProbe™ JC-1 assay kit for flow cytometry (Life technologies: T3168). […] Consequently, mitochondrial depolarization is indicated by a decrease in the red/green fluorescence intensity ratio. The cultured cells were analyzed by flow cytometry by using an FACSCaliber (Beckton Dickinson) using excitation at a wavelength of 488 nm, and band-pass emission light filters at a wavelength of 530/30 nm and 585/42 nm. The results were analyzed using Cell Quest 3.2 software (Beckton Dickinson).

For the compound `COc1cc2ncnc(-n3nc(-c4ccccn4)nc3N)c2cc1OC` [CP-466722, 2-(6,7-dimethoxyquinazolin-4-yl)-5-(pyridin-2-yl)-2H-1,2,4-triazol-3-amine], the “amount of lipofuscin vs control” value in assay [1] and in assay [2] was “significantly decreased” each time. Besides, the “amount of ROS vs control” value in assay [3] was “significantly decreased”. In addition, in assay [4], the “mitochondrial activity potential vs control” value is “significantly increased”.
